According to PubChem BioAssay (NCI):
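Values below derive from 48-hour exposures of cells grown in 96-well plates, with endpoints linearly interpolated between the two concentrations bracketing the appropriate inhibition level. GI50 is the concentration that inhibits growth by half. At the TGI there is no net growth.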

Legend:
Assay in all cases: NCI tumour cell line growth inhibition, 48 h
CCRF-CEM leukemia = system: CCRF-CEM leukemia
HL-60(TB) leukemia = system: HL-60(TB) leukemia
IGROV1 ovarian = system: IGROV1 ovarian
KM12 colon = system: KM12 colon
MOLT-4 leukemia = system: MOLT-4 leukemia
NCI/ADR-RES ovarian = system: NCI/ADR-RES ovarian
SK-MEL-2 melanoma = system: SK-MEL-2 melanoma
U251 CNS = system: U251 CNS
DU-145 prostate = system: DU-145 prostate
TK-10 renal = system: TK-10 renal

| Structure (SMILES) | GI50 (CCRF-CEM leukemia) | TGI (CCRF-CEM leukemia) | GI50 (HL-60(TB) leukemia) | TGI (HL-60(TB) leukemia) | TGI (IGROV1 ovarian) | TGI (KM12 colon) | TGI (MOLT-4 leukemia) | TGI (NCI/ADR-RES ovarian) | TGI (SK-MEL-2 melanoma) | TGI (U251 CNS) | TGI (DU-145 prostate) | TGI (TK-10 renal) | GI50 (MOLT-4 leukemia) | GI50 (DU-145 prostate) | GI50 (IGROV1 ovarian) | GI50 (KM12 colon) | GI50 (NCI/ADR-RES ovarian) | GI50 (SK-MEL-2 melanoma) | GI50 (TK-10 renal) | GI50 (U251 CNS) |
| --- | --- | --- | --- | --- | --- | --- | --- | --- | --- | --- | --- | --- | --- | --- | --- | --- | --- | --- | --- | --- |
| O=C(O)/C=C/c1cnc[nH]1 | > 500 µM | > 500 µM | > 500 µM | > 500 µM | > 500 µM | > 500 µM | > 500 µM | > 500 µM | > 500 µM | > 500 µM |  |  |  |  |  |  |  |  |  |  |
| O=C(O)c1cncc(C(=O)O)c1 |  | > 100 µM |  | > 100 µM | > 100 µM | > 100 µM | > 100 µM | > 100 µM | > 100 µM | > 100 µM | > 100 µM | > 100 µM |  |  |  |  |  |  |  |  |
| CC(=O)[O-].[Ni].c1ccc(/C(=N\Nc2ccccn2)c2ccccn2)cc1 | 0.0976 µM | 44.3 µM |  | 0.61 µM | 29.7 µM | 23.1 µM | 24.3 µM | 25.9 µM | 24.9 µM | 22.7 µM | 25.1 µM | 20.7 µM | 0.076 µM |  |  |  |  |  |  |  |
| COc1ccc2c[n+](C)c3c4cc(OC)c(OC)cc4ccc3c2c1 |  | 31.2 µM |  | 32.4 µM | 22.1 µM | 3.85 µM | 32.3 µM | > 100 µM | 27.7 µM | 15.3 µM | 37.4 µM | 51.5 µM |  |  |  |  |  |  |  |  |
| NC(CCCNc1cccc(O)c1)C(=O)O (stereo not drawn) |  | > 100 µM |  | > 100 µM |  |  | > 100 µM |  | > 100 µM | > 100 µM |  | > 100 µM |  |  |  |  |  |  |  |  |
| CCSc1nc(N2CCCCC2)c2cn[nH]c2n1 | 34.7 µM | > 100 µM | 27.4 µM | > 100 µM | > 100 µM | > 100 µM |  | > 100 µM | > 100 µM | > 100 µM | 75.5 µM | > 100 µM |  | 18.4 µM | 47 µM | 29 µM | 92.5 µM | 39.8 µM | 36.8 µM | 88.3 µM |
| Cn1c(=O)c2c(ncn2CCSS(=O)(=O)O)n(C)c1=O |  |  |  |  | > 100 µM | > 100 µM |  | > 100 µM | > 100 µM | > 100 µM | > 100 µM | > 100 µM |  |  |  |  |  |  |  |  |
| COc1cccc(C2C(C(=O)O)=C(CO)Oc3cc4c(cc32)OCO4)c1 (stereo not drawn) |  | > 100 µM |  | > 100 µM | > 100 µM |  | > 100 µM |  | > 100 µM | > 100 µM |  | > 100 µM |  |  |  |  |  |  |  |  |
| CC(=O)[O-].CC(=O)[O-].O=C(N/N=C/c1cc(Cl)cc(Cl)c1[OH2+])c1ccncc1.[Zn+2] |  | > 100 µM |  | > 100 µM | > 100 µM | > 100 µM | > 100 µM |  |  | > 100 µM |  | > 100 µM |  |  |  |  |  |  |  |  |
| COc1ccc2c(c1)O[C@H]1c3ccc(O)cc3OC[C@@H]21 |  | 65.8 µM |  | 49.8 µM | 71.6 µM |  | 55.2 µM |  | 72.7 µM | > 100 µM |  | > 100 µM |  |  |  |  |  |  |  |  |
| CC(=O)NC(CCCCNC(=O)OC(C)(C)C)C(=O)O (stereo not drawn) |  | > 100 µM |  | > 100 µM | > 100 µM |  | > 100 µM | > 100 µM |  | > 100 µM | > 100 µM | > 100 µM |  |  |  |  |  |  |  |  |
| C=C(CN(C)C)C(=O)c1cc(C)ccc1C |  | 1.37 µM |  | 0.446 µM | 34.7 µM | 38.3 µM | 3.86 µM | > 85.1 µM | 37.8 µM | 33.5 µM | 22 µM | 20.4 µM |  |  |  |  |  |  |  |  |
| O=C(N1CCC(CN=c2cc3n(-c4ccc(Cl)cc4)c4ccccc4nc-3cc2Nc2ccc(Cl)cc2)CC1)N1CC1 | 0.253 µM | 1.15 µM | 1.5 µM | 3.64 µM |  | 3.21 µM | 3.91 µM |  | 2.04 µM | 2.48 µM | 2.65 µM |  | 0.792 µM | 1.3 µM |  | 1.4 µM |  | 0.632 µM |  | 1.23 µM |
| O=c1[nH]cc(N(CCCl)CCCl)c(=O)[nH]1 |  | 113 µM |  | 36.9 µM | 266 µM | 232 µM | 28.3 µM | 160 µM | 204 µM | 253 µM | 303 µM | 325 µM |  |  |  |  |  |  |  |  |
| O=NNc1cnccn1 |  | > 1250 µM |  | > 852 µM | > 1250 µM | > 1250 µM | 876 µM | > 1250 µM | > 1250 µM | > 1250 µM | > 1250 µM | > 1250 µM |  |  |  |  |  |  |  |  |
| c1ccc(SC(Sc2ccccc2)c2ccc3c(c2)OCO3)cc1 |  | > 100 µM |  | > 100 µM | > 100 µM | > 100 µM | > 100 µM | > 100 µM | > 100 µM | > 100 µM | > 100 µM | > 100 µM |  |  |  |  |  |  |  |  |
| CCOC(=O)C1(C(=O)OCC)CSC1 |  | > 100 µM |  |  |  | > 100 µM | > 100 µM | > 100 µM |  | > 100 µM | > 100 µM | > 100 µM |  |  |  |  |  |  |  |  |
